Measurements reported in paper PMC5697638, “Identification of a Potent Phosphoinositide 3‐Kinase Pan Inhibitor Displaying a Strategic Carboxylic Acid Group and Development of Its Prodrugs” (Chemmedchem, 2017).

Assays:
Format in all cases: biochemical
[1] = target: T1, hPI3Kβ (PIK3CB wt/PIK3R1) (Homo sapiens, UniProt P42338); experiment: lipid kinase assay (ADP-Glo), PI3Kβ
T1 construct: purchased ProQinase, Germany 1168‐1165‐1
Description: (§1) In vitro selection, lipid kinase assay: To determine the inhibitory activity of the new molecular entities on PI3K enzyme, a lipid kinase assay was performed: recombinant proteins (30 ng), human PI3Kα (PIK3CA/PIK3R1, #1161‐1165‐1 ProQinase–Germany), hPI3Kβ (PIK3CB wt/PIK3R1, #1168‐1165‐1 ProQinase, Germany), hPI3Kγ (PIK3CG, #1163‐0000‐1 ProQinase, Germany), hPI3Kδ (PIK3CD/PIK3R1, #1162–1165‐1 ProQinase, Germany), hPI3K‐C2α (PIK3C2A, #14‐906 Merck Millipore_Merck KGaA, Germany), hPI3K‐C2β (PIK3C2B, #14‐907 Merck Millipore_Merck KGaA, Germany), hPI3K‐c2γ (PIK3C2G, #1207‐0000‐1 ProQinase, Germany), and hVps34 (PIK3C3, #1160‐0000‐1 ProQinase, Germany), were incubated in kinase buffer {12.5 μL; 20 mM Tris‐HCl pH 7.5, 10 mM MgCl2, 10 μM ATP, 0.05 mg mL^−1 BSA, 0.5 mM EDTA, 5 mM HEPES pH 7.5, for PI3Kα,PI3Kβ, PI3Kγ, PI3Kδ, PI3KC‐2α, and PI3KC‐2γ; 15 mM MnCl2, 5 mM EGTA, 100 μM ATP, 50 mM HEPES pH 7.5, 100 mM NaCl, and 0.03 % CHAPS for PI3K‐C2β and VPS34 {BSA=bovine serum albumin; EDTA=ethylenediaminetetraacetic acid; HEPES=4‐(2‐hydroxyethyl)‐1‐piperazineethanesulfonic acid; EGTA=ethylene glycol‐bis(2‐aminoethylether)‐N,N,N′,N′‐tetraacetic acid; CHAPS=3‐[(3‐cholamidopropyl)dimethylammonio]‐1‐propanesulfonate}. In the reaction, the ATP concentration used for different PI3Ks was defined on the basis of the Michaelis–Menten kinetics of each enzyme, provided by the supplier. Reaction was performed in presence of 0.5 mg mL^−1 lipid micelles (1:1 phosphatidylinositol/phosphatidylserine) and in the absence (DMSO alone) or presence of increasing concentrations of each compound (from 0.1 nM to 30 μM). The mixture was kept at room temperature (RT) for 30 min for PI3Kα, PI3Kβ, PI3Kγ, PI3Kδ, PI3KC‐2α, and PI3KC‐2γ and for 1 h for PI3K‐C2β and PI3K‐C3. The amount of ADP produced in the reaction was measured by using the ADP‐Glo Kinase Assay kit from Promega (#V9102) and a luminescence reader (Glomax multi detection system, Promega, model number 9301‐010).
The residual PI3K lipid kinase activity in the presence of each molecule at different concentrations was related to the control, intended as the recombinant protein in the presence of DMSO alone and was expressed as a percentage. To derive the IC50 value, all data (% of lipid kinase activity) were plotted on a dose–response curve (Graph Pad software), and the IC50 was calculated by using nonlinear regression fit (equation [log agonist] versus response).

hPI3K‐C2α (PIK3C2A) = hPI3K‐C2α (PIK3C2A) (Homo sapiens, UniProt O00443); experiment: lipid kinase assay (ADP-Glo), PI3K-C2α; settings: Table 2; mean of at least three determinations, 95 % confidence intervals; read-out: IC50 PI3Kc2α
Description: as §1, with “Reaction was performed in presence of 0.5 mg mL^−1 lipid micelles (1:1 phosphatidylinositol/phosphatidylserine) and in the absence (DMSO alone) or presence of increasing concentrations of each compound (from 0.1 nM to 30 μM). The mixture was kept at room temperature (RT) for 30 min for PI3Kα, PI3Kβ, PI3Kγ, PI3Kδ, PI3KC‐2α, and PI3KC‐2γ and for 1 h for PI3K‐C2β and PI3K‐C3. The amount of ADP produced in the reaction was measured by using the ADP‐Glo Kinase Assay kit from Promega (#V9102) and a luminescence reader (Glomax multi detection system, Promega, model number 9301‐010).” left out

hPI3K‐c2γ (PIK3C2G) = target: T2, hPI3K‐c2γ (PIK3C2G) (Homo sapiens, UniProt O75747); experiment: lipid kinase assay (ADP-Glo), PI3K-C2γ; settings: Table 2; mean of at least three determinations, 95 % confidence intervals; read-out: IC50 PI3Kc2γ
T2 construct: purchased ProQinase, Germany 1207‐0000‐1
T2 sequence (O75747 1-1486): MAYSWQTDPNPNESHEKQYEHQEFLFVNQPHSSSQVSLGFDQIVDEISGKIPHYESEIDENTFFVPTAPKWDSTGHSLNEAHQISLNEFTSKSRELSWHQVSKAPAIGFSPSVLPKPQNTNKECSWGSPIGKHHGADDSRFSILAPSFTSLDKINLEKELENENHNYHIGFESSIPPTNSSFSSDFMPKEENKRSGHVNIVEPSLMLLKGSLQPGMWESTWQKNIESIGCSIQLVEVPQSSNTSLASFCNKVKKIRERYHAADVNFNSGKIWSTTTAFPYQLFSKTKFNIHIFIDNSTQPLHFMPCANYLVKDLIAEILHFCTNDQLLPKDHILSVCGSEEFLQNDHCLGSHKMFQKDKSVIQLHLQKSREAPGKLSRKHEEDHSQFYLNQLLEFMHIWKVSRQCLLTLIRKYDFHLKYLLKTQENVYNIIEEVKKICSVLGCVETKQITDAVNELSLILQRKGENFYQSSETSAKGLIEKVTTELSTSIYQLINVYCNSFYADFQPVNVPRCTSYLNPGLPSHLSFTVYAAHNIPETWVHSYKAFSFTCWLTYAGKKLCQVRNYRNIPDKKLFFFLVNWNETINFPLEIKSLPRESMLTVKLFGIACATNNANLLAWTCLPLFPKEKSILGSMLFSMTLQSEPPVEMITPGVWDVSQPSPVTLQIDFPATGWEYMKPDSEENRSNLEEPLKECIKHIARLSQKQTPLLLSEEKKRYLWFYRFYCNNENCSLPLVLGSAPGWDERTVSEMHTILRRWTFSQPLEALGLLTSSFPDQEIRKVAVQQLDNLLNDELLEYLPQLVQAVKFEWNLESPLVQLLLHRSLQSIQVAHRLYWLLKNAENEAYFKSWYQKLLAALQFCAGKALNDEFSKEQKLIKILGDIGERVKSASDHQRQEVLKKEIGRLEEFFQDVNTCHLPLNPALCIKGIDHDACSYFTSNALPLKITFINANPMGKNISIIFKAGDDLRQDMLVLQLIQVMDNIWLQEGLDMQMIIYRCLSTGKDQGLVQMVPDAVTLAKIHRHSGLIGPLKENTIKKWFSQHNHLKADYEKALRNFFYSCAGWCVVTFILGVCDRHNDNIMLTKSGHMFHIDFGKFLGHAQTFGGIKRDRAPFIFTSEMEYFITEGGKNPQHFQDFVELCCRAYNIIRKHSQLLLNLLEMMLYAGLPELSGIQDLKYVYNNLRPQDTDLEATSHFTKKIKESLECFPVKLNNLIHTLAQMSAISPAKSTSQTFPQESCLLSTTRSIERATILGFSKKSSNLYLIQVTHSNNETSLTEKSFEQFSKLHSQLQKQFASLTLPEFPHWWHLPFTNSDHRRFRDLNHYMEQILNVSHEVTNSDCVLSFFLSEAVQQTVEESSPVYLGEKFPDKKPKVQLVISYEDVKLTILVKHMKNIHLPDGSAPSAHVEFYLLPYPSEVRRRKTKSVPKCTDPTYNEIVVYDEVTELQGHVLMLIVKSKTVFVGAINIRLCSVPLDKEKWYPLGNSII
Description: as §1, with “Reaction was performed in presence of 0.5 mg mL^−1 lipid micelles (1:1 phosphatidylinositol/phosphatidylserine) and in the absence (DMSO alone) or presence of increasing concentrations of each compound (from 0.1 nM to 30 μM). The mixture was kept at room temperature (RT) for 30 min for PI3Kα, PI3Kβ, PI3Kγ, PI3Kδ, PI3KC‐2α, and PI3KC‐2γ and for 1 h for PI3K‐C2β and PI3K‐C3. The amount of ADP produced in the reaction was measured by using the ADP‐Glo Kinase Assay kit from Promega (#V9102) and a luminescence reader (Glomax multi detection system, Promega, model number 9301‐010).” left out

T1 sequence (P42338 whole entry): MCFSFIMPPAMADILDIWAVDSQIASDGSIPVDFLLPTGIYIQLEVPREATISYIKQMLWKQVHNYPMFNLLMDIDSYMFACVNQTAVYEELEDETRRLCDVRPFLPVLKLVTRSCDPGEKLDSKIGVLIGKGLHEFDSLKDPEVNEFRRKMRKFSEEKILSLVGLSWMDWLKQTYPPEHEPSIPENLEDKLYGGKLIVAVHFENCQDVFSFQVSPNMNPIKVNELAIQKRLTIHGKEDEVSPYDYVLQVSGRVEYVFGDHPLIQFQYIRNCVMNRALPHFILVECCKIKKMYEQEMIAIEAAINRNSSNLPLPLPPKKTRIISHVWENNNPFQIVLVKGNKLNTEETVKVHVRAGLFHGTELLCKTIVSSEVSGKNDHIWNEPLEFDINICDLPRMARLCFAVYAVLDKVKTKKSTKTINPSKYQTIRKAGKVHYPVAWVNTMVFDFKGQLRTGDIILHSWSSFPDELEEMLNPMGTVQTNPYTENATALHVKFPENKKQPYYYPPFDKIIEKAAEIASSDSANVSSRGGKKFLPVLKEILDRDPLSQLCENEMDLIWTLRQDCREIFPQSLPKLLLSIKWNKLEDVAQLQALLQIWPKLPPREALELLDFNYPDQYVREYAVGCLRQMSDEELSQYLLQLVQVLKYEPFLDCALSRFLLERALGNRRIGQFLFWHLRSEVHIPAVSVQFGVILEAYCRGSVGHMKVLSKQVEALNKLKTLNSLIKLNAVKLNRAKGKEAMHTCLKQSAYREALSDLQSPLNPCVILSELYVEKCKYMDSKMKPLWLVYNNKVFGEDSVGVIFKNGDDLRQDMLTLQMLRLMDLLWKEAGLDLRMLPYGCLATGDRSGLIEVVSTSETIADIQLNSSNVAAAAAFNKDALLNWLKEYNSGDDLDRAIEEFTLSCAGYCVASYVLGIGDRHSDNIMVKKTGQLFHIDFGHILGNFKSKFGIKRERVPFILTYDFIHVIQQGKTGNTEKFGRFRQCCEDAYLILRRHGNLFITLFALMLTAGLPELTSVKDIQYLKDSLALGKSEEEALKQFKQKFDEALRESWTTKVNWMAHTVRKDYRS
T1 sequence (P27986 whole entry partner): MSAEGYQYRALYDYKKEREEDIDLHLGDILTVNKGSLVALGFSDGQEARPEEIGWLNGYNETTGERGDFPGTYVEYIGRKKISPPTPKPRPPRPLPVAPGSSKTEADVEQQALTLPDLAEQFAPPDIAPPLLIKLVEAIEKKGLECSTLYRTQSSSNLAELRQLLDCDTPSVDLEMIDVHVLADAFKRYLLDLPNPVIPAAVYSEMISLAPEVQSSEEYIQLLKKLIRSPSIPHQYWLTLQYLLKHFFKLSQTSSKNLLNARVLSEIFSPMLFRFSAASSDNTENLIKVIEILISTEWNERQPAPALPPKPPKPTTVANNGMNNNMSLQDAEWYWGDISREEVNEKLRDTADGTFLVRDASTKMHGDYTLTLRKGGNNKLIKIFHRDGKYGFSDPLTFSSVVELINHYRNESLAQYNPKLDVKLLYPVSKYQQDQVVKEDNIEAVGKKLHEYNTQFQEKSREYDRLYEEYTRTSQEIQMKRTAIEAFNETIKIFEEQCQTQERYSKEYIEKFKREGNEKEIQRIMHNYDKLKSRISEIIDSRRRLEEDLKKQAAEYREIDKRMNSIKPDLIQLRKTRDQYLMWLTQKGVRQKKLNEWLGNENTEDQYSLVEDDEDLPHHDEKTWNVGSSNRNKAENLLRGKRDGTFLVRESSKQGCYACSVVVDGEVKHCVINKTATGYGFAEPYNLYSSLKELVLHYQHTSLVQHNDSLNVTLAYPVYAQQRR
Sequence of hPI3K‐C2α (PIK3C2A) (O00443 whole entry): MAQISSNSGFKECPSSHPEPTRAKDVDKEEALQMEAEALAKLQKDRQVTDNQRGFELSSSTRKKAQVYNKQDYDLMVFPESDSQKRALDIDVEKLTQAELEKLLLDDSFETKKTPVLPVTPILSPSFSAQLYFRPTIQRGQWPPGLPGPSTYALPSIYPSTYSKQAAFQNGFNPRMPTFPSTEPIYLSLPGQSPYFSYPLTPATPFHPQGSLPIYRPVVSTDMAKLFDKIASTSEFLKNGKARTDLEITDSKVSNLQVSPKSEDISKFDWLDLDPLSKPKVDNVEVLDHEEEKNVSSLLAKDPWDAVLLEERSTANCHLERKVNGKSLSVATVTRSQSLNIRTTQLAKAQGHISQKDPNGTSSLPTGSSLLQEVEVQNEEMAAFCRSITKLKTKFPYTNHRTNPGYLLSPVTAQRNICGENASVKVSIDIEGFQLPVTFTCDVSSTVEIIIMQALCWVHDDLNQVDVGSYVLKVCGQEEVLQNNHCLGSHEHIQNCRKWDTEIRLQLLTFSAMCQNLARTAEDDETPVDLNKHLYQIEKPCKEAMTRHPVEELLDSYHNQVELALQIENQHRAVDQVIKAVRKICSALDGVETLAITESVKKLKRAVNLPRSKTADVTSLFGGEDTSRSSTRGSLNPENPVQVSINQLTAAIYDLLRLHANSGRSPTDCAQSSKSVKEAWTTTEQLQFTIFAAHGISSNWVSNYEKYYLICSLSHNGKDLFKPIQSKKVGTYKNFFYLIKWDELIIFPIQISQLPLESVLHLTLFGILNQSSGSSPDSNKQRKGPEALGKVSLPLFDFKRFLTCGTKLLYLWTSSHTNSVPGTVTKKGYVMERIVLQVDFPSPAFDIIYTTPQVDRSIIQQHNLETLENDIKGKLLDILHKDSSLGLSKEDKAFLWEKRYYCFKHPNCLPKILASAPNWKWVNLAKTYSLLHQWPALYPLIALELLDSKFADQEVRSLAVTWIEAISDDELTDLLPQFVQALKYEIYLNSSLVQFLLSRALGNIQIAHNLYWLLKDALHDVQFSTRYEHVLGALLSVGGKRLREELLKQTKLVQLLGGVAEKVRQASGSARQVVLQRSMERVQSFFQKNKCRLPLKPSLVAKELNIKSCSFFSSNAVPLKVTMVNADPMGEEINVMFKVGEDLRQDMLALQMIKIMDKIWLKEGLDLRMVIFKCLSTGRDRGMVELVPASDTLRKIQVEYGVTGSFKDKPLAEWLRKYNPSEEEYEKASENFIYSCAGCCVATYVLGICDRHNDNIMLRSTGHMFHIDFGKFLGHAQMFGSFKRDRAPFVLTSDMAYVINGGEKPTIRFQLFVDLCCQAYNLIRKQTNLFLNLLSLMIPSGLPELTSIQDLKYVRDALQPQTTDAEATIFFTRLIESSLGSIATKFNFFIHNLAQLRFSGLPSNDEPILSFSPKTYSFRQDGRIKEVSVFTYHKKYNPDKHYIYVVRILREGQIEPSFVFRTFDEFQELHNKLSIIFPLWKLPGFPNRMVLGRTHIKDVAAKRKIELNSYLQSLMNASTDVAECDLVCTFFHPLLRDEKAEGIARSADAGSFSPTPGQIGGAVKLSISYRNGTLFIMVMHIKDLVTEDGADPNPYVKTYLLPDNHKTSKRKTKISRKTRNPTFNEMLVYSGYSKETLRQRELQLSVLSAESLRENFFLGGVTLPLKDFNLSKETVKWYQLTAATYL

Compound `O=C(O)c1cccc(Cn2cc(-c3cccc4c(=O)cc(N5CCOCC5)[nH]c34)nn2)c1` [Compound 37, 3‐{[4‐(2‐Morpholino‐4‐oxo‐1,4‐dihydroquinolin‐8‐yl)‐1H‐1,2,3‐triazol‐1‐yl]methyl}benzoic acid] has an IC50 ([1]; Table 2, mean of at least three determinations, 95 % confidence intervals) of 0.059 ± 0.015 µM, an inhibition at 1 µM ([1]; determined at 1 μM, at least triplicate, read-out: Inhibitory activity, PI3K isoform β) of over 50% and an IC50 (hPI3K‐C2α (PIK3C2A)) of 3.7 ± 1.1 µM. For the same compound, the IC50 (hPI3K‐c2γ (PIK3C2G)) was 2.8 ± 0.7 µM.
